Data as given in patent US6852673B2, “Herbicidal pyridine compounds” (BASF Aktiengesellschaft, priority 1998, dated 2005).

Tests used:
Assay type in all cases: in vivo
Hordeum vulgare (HORVW) [1] = test: Pre-emergence herbicidal evaluation, winter barley
Procedure, shortened: (§1)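 Visual injury ratings are taken 2 to 4 weeks after treatment. Before that, seeds are planted in soil-filled pots and sprayed at once with the compound in aqueous acetone, dosed at about 0.0125 to 0.4 kg per hectare, and the pots are grown on greenhouse benches.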

Oryza sativum (ORYSA) [2] = test: Pre-emergence herbicidal evaluation, rice
Procedure, shortened: as §1

[3] = test system: Triticum aestivum (TRZAW); test: Pre-emergence herbicidal evaluation, winter wheat
Procedure, shortened: as §1

[4] = test system: Abutilon theophrasti (ABUTH); test: Pre-emergence herbicidal evaluation, velvetleaf
Procedure, shortened: as §1

[5] = test system: Ambrosia artemiisifolia (AMBEL); test: Pre-emergence herbicidal evaluation, ragweed
Procedure, shortened: as §1

Galium aparine (GALAP) [6] = test: Pre-emergence herbicidal evaluation, cleaver
Procedure, shortened: as §1

[7] = test system: Ipomoea hederacea (IPOHE); test: Pre-emergence herbicidal evaluation, morning glory
Procedure, shortened: as §1

Lamium purpureum (LAMPU) = test: Pre-emergence herbicidal evaluation, purple deadnettle
Procedure, shortened: as §1

[8] = test system: Matricaria inodora (MATIN); test: Pre-emergence herbicidal evaluation, mayweed
Procedure, shortened: as §1

Stellaria media (STEME) = test: Pre-emergence herbicidal evaluation, chickweed
Procedure, shortened: as §1

[9] = test system: Alopecurus myosuroides (ALOMY); test: Pre-emergence herbicidal evaluation, black grass
Procedure, shortened: as §1

[10] = test system: Echinochloa grus galli (ECHCG); test: Pre-emergence herbicidal evaluation, barnyard grass
Procedure, shortened: as §1

Setaria viridis (SETVI) [11] = test: Pre-emergence herbicidal evaluation, green foxtail
Procedure, shortened: as §1

Glycine max (GLXMA) = test: Post-emergence herbicidal evaluation, soyabeans; conditions: rated 2 to 4 weeks after treatment
Method: (§2) [table] [table] […] These acetone solutions are diluted with water and the resulting formulations applied at dosage levels equivalent of about 0.03 to 0.4 kg per hectare of test compound per pot. After spraying the plants are placed on greenhouse benches and are cared for in the usual manner, commensurate with conventional greenhouse practices. From 2 to 4 weeks after treatment, the seedling plants are examined and rated according to the rating system provided above. A rating 0 indicates growth as untreated control, a rating 9 indicates death.

Hordeum vulgare (HORVW) [12] = test: Post-emergence herbicidal evaluation, winter barley; conditions: rated 2 to 4 weeks after treatment
Procedure, shortened: (§3)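 Plants rated 0–9 (0 = growth as untreated control, 9 = death) 2 to 4 weeks after greenhouse post-emergence treatment. Formulations were water-diluted acetone solutions sprayed at doses equivalent to about 0.03 to 0.4 kg test compound per hectare per pot.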

Oryza sativum (ORYSA) [13] = test: Post-emergence herbicidal evaluation, rice; conditions: rated 2 to 4 weeks after treatment
Procedure, shortened: as §3

[14] = test system: Triticum aestivum (TRZAW); test: Post-emergence herbicidal evaluation, winter wheat; conditions: rated 2 to 4 weeks after treatment
Procedure, shortened: as §3

Zea mays (ZEAMX) = test: Post-emergence herbicidal evaluation, maize; conditions: rated 2 to 4 weeks after treatment
Procedure, shortened: as §3

[15] = test system: Abutilon theophrasti (ABUTH); test: Post-emergence herbicidal evaluation, velvetleaf; conditions: rated 2 to 4 weeks after treatment
Procedure, shortened: as §3

[16] = test system: Ambrosia artemiisifolia (AMBEL); test: Post-emergence herbicidal evaluation, ragweed; conditions: rated 2 to 4 weeks after treatment
Procedure, shortened: as §3

Galium aparine (GALAP) [17] = test: Post-emergence herbicidal evaluation, cleaver; conditions: rated 2 to 4 weeks after treatment
Procedure, shortened: as §3

[18] = test system: Ipomoea hederacea (IPOHE); test: Post-emergence herbicidal evaluation, morning glory; conditions: rated 2 to 4 weeks after treatment
Procedure, shortened: as §3

[19] = test system: Matricaria inodora (MATIN); test: Post-emergence herbicidal evaluation, mayweed; conditions: rated 2 to 4 weeks after treatment
Procedure, shortened: as §3

[20] = test system: Alopecurus myosuroides (ALOMY); test: Post-emergence herbicidal evaluation, black grass; conditions: rated 2 to 4 weeks after treatment
Procedure, shortened: as §3

[21] = test system: Echinochloa grus galli (ECHCG); test: Post-emergence herbicidal evaluation, barnyard grass; conditions: rated 2 to 4 weeks after treatment
Method: as §2

Setaria viridis (SETVI) [22] = test: Post-emergence herbicidal evaluation, green foxtail; conditions: rated 2 to 4 weeks after treatment
Procedure, shortened: as §3

COc1cc(OCC(F)(F)C(F)F)nc(Oc2cc(C(F)(F)F)nn2C)c1 [Example 4, 2-(1-Methyl-3-trifluoromethylpyrazol-5-yloxy)-4-methoxy-6-(2,2,3,3-tetrafluoropropyloxy)pyridine]
HORVW rating (Hordeum vulgare (HORVW) [1]; dose 0.013 kg/ha): 1 (1 - Trace effect)
HORVW rating (Hordeum vulgare (HORVW) [1]; dose 0.025 kg/ha): 2 (2 - Slight effect)
HORVW rating (Hordeum vulgare (HORVW) [1]; dose 0.1 kg/ha): 3 (3 - Moderate effect)
HORVW rating (Hordeum vulgare (HORVW) [1]; dose 0.4 kg/ha): 4 (4 - Injury)
ORYSA rating (Oryza sativum (ORYSA) [2]; dose 0.013 kg/ha): 1 (1 - Trace effect)
ORYSA rating (Oryza sativum (ORYSA) [2]; dose 0.025 kg/ha): 1 (1 - Trace effect)
ORYSA rating (Oryza sativum (ORYSA) [2]; dose 0.1 kg/ha): 2 (2 - Slight effect)
ORYSA rating (Oryza sativum (ORYSA) [2]; dose 0.4 kg/ha): 3 (3 - Moderate effect)
TRZAW rating ([3]; dose 0.013 kg/ha): 0 (0 - No effect)
TRZAW rating ([3]; dose 0.025 kg/ha): 0 (0 - No effect)
TRZAW rating ([3]; dose 0.1 kg/ha): 1 (1 - Trace effect)
TRZAW rating ([3]; dose 0.4 kg/ha): 4 (4 - Injury)
ABUTH rating ([4]; dose 0.013 kg/ha): 3 (3 - Moderate effect)
ABUTH rating ([4]; dose 0.025 kg/ha): 5 (5 - Definite injury)
ABUTH rating ([4]; dose 0.1 kg/ha): 7 (7 - Good herbicidal effect)
ABUTH rating ([4]; dose 0.4 kg/ha): 9 (9 - Complete kill)
AMBEL rating ([5]; dose 0.013 kg/ha): 4 (4 - Injury)
AMBEL rating ([5]; dose 0.025 kg/ha): 9 (9 - Complete kill)
AMBEL rating ([5]; dose 0.1 kg/ha): 9 (9 - Complete kill)
AMBEL rating ([5]; dose 0.4 kg/ha): 9 (9 - Complete kill)
GALAP rating (Galium aparine (GALAP) [6]; dose 0.013 kg/ha): 1 (1 - Trace effect)
GALAP rating (Galium aparine (GALAP) [6]; dose 0.025 kg/ha): 3 (3 - Moderate effect)
GALAP rating (Galium aparine (GALAP) [6]; dose 0.1 kg/ha): 5 (5 - Definite injury)
GALAP rating (Galium aparine (GALAP) [6]; dose 0.4 kg/ha): 8 (8 - Approaching complete kill)
IPOHE rating ([7]; dose 0.013 kg/ha): 3 (3 - Moderate effect)
IPOHE rating ([7]; dose 0.025 kg/ha): 6 (6 - Herbicidal effect)
IPOHE rating ([7]; dose 0.1 kg/ha): 9 (9 - Complete kill)
IPOHE rating ([7]; dose 0.4 kg/ha): 9 (9 - Complete kill)
LAMPU rating (Lamium purpureum (LAMPU); dose 0.013 kg/ha): 8 (8 - Approaching complete kill)
LAMPU rating (Lamium purpureum (LAMPU); dose 0.025 kg/ha): 8 (8 - Approaching complete kill)
LAMPU rating (Lamium purpureum (LAMPU); dose 0.1 kg/ha): 9 (9 - Complete kill)
LAMPU rating (Lamium purpureum (LAMPU); dose 0.4 kg/ha): 9 (9 - Complete kill)
MATIN rating ([8]; dose 0.013 kg/ha): 8 (8 - Approaching complete kill)
MATIN rating ([8]; dose 0.025 kg/ha): 8 (8 - Approaching complete kill)
MATIN rating ([8]; dose 0.1 kg/ha): 9 (9 - Complete kill)
MATIN rating ([8]; dose 0.4 kg/ha): 9 (9 - Complete kill)
STEME rating (Stellaria media (STEME); dose 0.013 kg/ha): 4 (4 - Injury)
STEME rating (Stellaria media (STEME); dose 0.025 kg/ha): 6 (6 - Herbicidal effect)
STEME rating (Stellaria media (STEME); dose 0.1 kg/ha): 9 (9 - Complete kill)
STEME rating (Stellaria media (STEME); dose 0.4 kg/ha): 9 (9 - Complete kill)
ALOMY rating ([9]; dose 0.025 kg/ha): 3 (3 - Moderate effect)
ALOMY rating ([9]; dose 0.1 kg/ha): 8 (8 - Approaching complete kill)
ALOMY rating ([9]; dose 0.4 kg/ha): 8 (8 - Approaching complete kill)
ECHCG rating ([10]; dose 0.013 kg/ha): 3 (3 - Moderate effect)
ECHCG rating ([10]; dose 0.025 kg/ha): 5 (5 - Definite injury)
ECHCG rating ([10]; dose 0.1 kg/ha): 8 (8 - Approaching complete kill)
ECHCG rating ([10]; dose 0.4 kg/ha): 8 (8 - Approaching complete kill)
SETVI rating (Setaria viridis (SETVI) [11]; dose 0.013 kg/ha): 5 (5 - Definite injury)
SETVI rating (Setaria viridis (SETVI) [11]; dose 0.025 kg/ha): 8 (8 - Approaching complete kill)
SETVI rating (Setaria viridis (SETVI) [11]; dose 0.1 kg/ha): 9 (9 - Complete kill)
SETVI rating (Setaria viridis (SETVI) [11]; dose 0.4 kg/ha): 9 (9 - Complete kill)
GLXMA rating (Glycine max (GLXMA); dose 0.03 kg/ha): 5 (5 - Definite injury)
GLXMA rating (Glycine max (GLXMA); dose 0.1 kg/ha): 8 (8 - Approaching complete kill)
GLXMA rating (Glycine max (GLXMA); dose 0.4 kg/ha): 8 (8 - Approaching complete kill)
HORVW rating (Hordeum vulgare (HORVW) [12]; dose 0.03 kg/ha): 3 (3 - Moderate effect)
HORVW rating (Hordeum vulgare (HORVW) [12]; dose 0.1 kg/ha): 3 (3 - Moderate effect)
HORVW rating (Hordeum vulgare (HORVW) [12]; dose 0.4 kg/ha): 5 (5 - Definite injury)
ORYSA rating (Oryza sativum (ORYSA) [13]; dose 0.03 kg/ha): 2 (2 - Slight effect)
ORYSA rating (Oryza sativum (ORYSA) [13]; dose 0.1 kg/ha): 2 (2 - Slight effect)
ORYSA rating (Oryza sativum (ORYSA) [13]; dose 0.4 kg/ha): 4 (4 - Injury)
TRZAW rating ([14]; dose 0.03 kg/ha): 2 (2 - Slight effect)
TRZAW rating ([14]; dose 0.1 kg/ha): 3 (3 - Moderate effect)
TRZAW rating ([14]; dose 0.4 kg/ha): 5 (5 - Definite injury)
ZEAMX rating (Zea mays (ZEAMX); dose 0.03 kg/ha): 2 (2 - Slight effect)
ZEAMX rating (Zea mays (ZEAMX); dose 0.1 kg/ha): 3 (3 - Moderate effect)
ZEAMX rating (Zea mays (ZEAMX); dose 0.4 kg/ha): 5 (5 - Definite injury)
ABUTH rating ([15]; dose 0.03 kg/ha): 4 (4 - Injury)
ABUTH rating ([15]; dose 0.1 kg/ha): 6 (6 - Herbicidal effect)
ABUTH rating ([15]; dose 0.4 kg/ha): 6 (6 - Herbicidal effect)
AMBEL rating ([16]; dose 0.03 kg/ha): 3 (3 - Moderate effect)
AMBEL rating ([16]; dose 0.1 kg/ha): 6 (6 - Herbicidal effect)
AMBEL rating ([16]; dose 0.4 kg/ha): 7 (7 - Good herbicidal effect)
GALAP rating (Galium aparine (GALAP) [17]; dose 0.03 kg/ha): 6 (6 - Herbicidal effect)
GALAP rating (Galium aparine (GALAP) [17]; dose 0.1 kg/ha): 9 (9 - Complete kill)
GALAP rating (Galium aparine (GALAP) [17]; dose 0.4 kg/ha): 9 (9 - Complete kill)
IPOHE rating ([18]; dose 0.03 kg/ha): 8 (8 - Approaching complete kill)
IPOHE rating ([18]; dose 0.1 kg/ha): 9 (9 - Complete kill)
IPOHE rating ([18]; dose 0.4 kg/ha): 9 (9 - Complete kill)
MATIN rating ([19]; dose 0.03 kg/ha): 5 (5 - Definite injury)
MATIN rating ([19]; dose 0.1 kg/ha): 7 (7 - Good herbicidal effect)
MATIN rating ([19]; dose 0.4 kg/ha): 7 (7 - Good herbicidal effect)
ALOMY rating ([20]; dose 0.03 kg/ha): 3 (3 - Moderate effect)
ALOMY rating ([20]; dose 0.1 kg/ha): 6 (6 - Herbicidal effect)
ALOMY rating ([20]; dose 0.4 kg/ha): 8 (8 - Approaching complete kill)
ECHCG rating ([21]; dose 0.03 kg/ha): 6 (6 - Herbicidal effect)
ECHCG rating ([21]; dose 0.1 kg/ha): 8 (8 - Approaching complete kill)
ECHCG rating ([21]; dose 0.4 kg/ha): 9 (9 - Complete kill)
SETVI rating (Setaria viridis (SETVI) [22]; dose 0.03 kg/ha): 6 (6 - Herbicidal effect)
SETVI rating (Setaria viridis (SETVI) [22]; dose 0.1 kg/ha): 8 (8 - Approaching complete kill)
SETVI rating (Setaria viridis (SETVI) [22]; dose 0.4 kg/ha): 9 (9 - Complete kill)
